Test results from US7271165B2, “Rifamycin analogs and uses thereof” (priority 2003, dated 2007).
Converted amounts (≈) assume the structure as drawn. Read-outs that look alike come from different tables or passages of the source.

Experiments:
[1] = system: S. aureus; experiment: MIC assay, S. aureus; assay type: cell-based, Staphylococcus aureus
[2] = system: E coli; experiment: MIC assay, E coli; assay type: cell-based
[3] = system: S. pneumo.; experiment: MIC assay, S. pneumo.; assay type: cell-based, Streptococcus pneumoniae
[4] = system: E. faecalis; experiment: MIC assay, E. faecalis; assay type: cell-based, Enterococcus faecalis
[5] = system: H. flu; assay type: cell-based, H. influenza

Row | SMILES | MIC (μg/mL) S. aureus [1] [µg/mL] | MIC (μg/mL) E coli [2] [µg/mL] | MIC (μg/mL) S. pneumo. [3] [µg/mL] | MIC (μg/mL) E. faecalis [4] [µg/mL] | MIC (μg/mL) H. flu ([5]; H. flu) [µg/mL] | MIC (μg/mL) H. flu [5] [µg/mL]
1 | COC1C=COC2(C)Oc3c(C)c(O)c4c(=O)c(c5oc6cc(N7CCN(CC8CC8)CC7)cc(O)c6nc-5c4c3C2=O)NC(=O)C(C)=CC=CC(C)C(O)C(C)C(O)C(C)C(O)C1C (stereo not drawn) [Compound 96] | 0.008 (≈ 0.00892 µM) | 2 (≈ 2.23 µM) | 0.0005 (≈ 0.000557 µM) | 0.06 (≈ 0.0669 µM) | 0.25 (≈ 0.279 µM) | –
2 | COC1C=COC2(C)Oc3c(C)c(O)c4c(=O)c(c5oc6cc(N7CC(C)NCC7C)cc(O)c6nc-5c4c3C2=O)NC(=O)C(C)=CC=CC(C)C(O)C(C)C(O)C(C)C(O)C1C (stereo not drawn) [Compound 97] | 0.004 (≈ 0.00459 µM) | 4 (≈ 4.59 µM) | 0.0005 (≈ 0.000574 µM) | 0.12 (≈ 0.138 µM) | 0.25 (≈ 0.287 µM) | –
3 | COC1C=COC2(C)Oc3c(C)c(O)c4c(=O)c(c5oc6cc(N7CCN(CCO)CC7)cc(O)c6nc-5c4c3C2=O)NC(=O)C(C)=CC=CC(C)C(O)C(C)C(O)C(C)C(O)C1C (stereo not drawn) [Compound 98] | 0.008 (≈ 0.00902 µM) | 8 (≈ 9.02 µM) | 0.0005 (≈ 0.000564 µM) | 0.12 (≈ 0.135 µM) | 0.25 (≈ 0.282 µM) | –
4 | COC1C=COC2(C)Oc3c(C)c(O)c4c(=O)c(c5oc6cc(N7CCN(c8ccccc8)CC7)cc(O)c6nc-5c4c3C2=O)NC(=O)C(C)=CC=CC(C)C(O)C(C)C(O)C(C)C(O)C1C (stereo not drawn) [Compound 99] | 0.004 (≈ 0.00435 µM) | 4 (≈ 4.35 µM) | 0.001 (≈ 0.00109 µM) | 0.06 (≈ 0.0653 µM) | 0.25 (≈ 0.272 µM) | –
5 | COC1C=COC2(C)Oc3c(C)c(O)c4c(=O)c(c5oc6cc(N7CCN(CCN(C)C)CC7)cc(O)c6nc-5c4c3C2=O)NC(=O)C(C)=CC=CC(C)C(O)C(C)C(O)C(C)C(O)C1C (stereo not drawn) [Compound 100] | 0.03 (≈ 0.0328 µM) | >8 | 0.008 (≈ 0.00875 µM) | 0.5 (≈ 0.547 µM) | 0.12 (≈ 0.131 µM) | –
6 | COC1C=COC2(C)Oc3c(C)c(O)c4c(=O)c(c5sc6cc(N7CCN(C)CC7)ccc6nc-5c4c3C2=O)NC(=O)C(C)=CC=CC(C)C(O)C(C)C(O)C(C)C(O)C1C (stereo not drawn) [Compound 101] | 0.002 (≈ 0.00233 µM) | 2 (≈ 2.33 µM) | 0.00012 (≈ 0.00014 µM) | 0.12 (≈ 0.14 µM) | 0.12 (≈ 0.14 µM) | –
7 | COC1C=COC2(C)Oc3c(C)c(O)c4c(=O)c(c5oc6cc(N7CCNCC7)cc(O)c6nc-5c4c3C2=O)NC(=O)C(C)=CC=CC(C)C(O)C(C)C(O)C(C)C(O)C1C (stereo not drawn) [Compound 104] | 0.008 (≈ 0.00949 µM) | 4 (≈ 4.75 µM) | 0.002 (≈ 0.00237 µM) | 0.06 (≈ 0.0712 µM) | – | 0.12 (≈ 0.142 µM)
8 | CCOc1c(N2CCN(CC3CC3)CC2)ccc2nc3c4c5c6c(C)c(O)c4c(=O)c(c-3oc12)NC(=O)/C(C)=C\C=C\[C@H](C)[C@H](O)[C@@H](C)[C@@H](O)[C@@H](C)[C@H](O)[C@H](C)[C@@H](OC)/C=C/O[C@@](C)(O6)C5=O [Compound 105] | 0.03 (≈ 0.0324 µM) | >8 | 0.015 (≈ 0.0162 µM) | 0.5 (≈ 0.54 µM) | 1 (≈ 1.08 µM) | –
9 | CO[C@H]1/C=C/O[C@@]2(C)Oc3c(C)c(O)c4c(=O)c(c5oc6c(F)c(N7CCN(CC(C)C)CC7)ccc6nc-5c4c3C2=O)NC(=O)/C(C)=C\C=C\[C@H](C)[C@H](O)[C@@H](C)[C@@H](O)[C@@H](C)[C@H](O)[C@@H]1C [Compound 106] | 0.03 (≈ 0.0333 µM) | 8 (≈ 8.88 µM) | 0.008 (≈ 0.00888 µM) | 0.5 (≈ 0.555 µM) | 0.5 (≈ 0.555 µM) | –
10 | COC1C=COC2(C)Oc3c(C)c(O)c4c(=O)c(c5oc6cc(N7CCN(C(=O)C8CC8)CC7)cc(O)c6nc-5c4c3C2=O)NC(=O)C(C)=CC=CC(C)C(O)C(C)C(O)C(C)C(O)C1C (stereo not drawn) [Compound 107] | 0.015 (≈ 0.0165 µM) | 8 (≈ 8.78 µM) | 0.004 (≈ 0.00439 µM) | 0.5 (≈ 0.549 µM) | 0.25 (≈ 0.274 µM) | –
11 | CCc1cc2nc3c4c5c6c(C)c(O)c4c(=O)c(c-3oc2cc1N1CCCCC1)NC(=O)/C(C)=C\C=C\[C@H](C)[C@H](O)[C@@H](C)[C@@H](O)[C@@H](C)[C@H](O)[C@H](C)[C@@H](OC)/C=C/O[C@@](C)(O6)C5=O [Compound 108] | 1 (≈ 1.17 µM) | 1 (≈ 1.17 µM) | 0.12 (≈ 0.141 µM) | 4 (≈ 4.68 µM) | 2 (≈ 2.34 µM) | –
12 | CO[C@H]1/C=C/O[C@@]2(C)Oc3c(C)c(O)c4c(=O)c(c5oc6cc(N7CCC(C(N)=O)CC7)cc(O)c6nc-5c4c3C2=O)NC(=O)/C(C)=C\C=C\[C@H](C)[C@H](O)[C@@H](C)[C@@H](O)[C@@H](C)[C@H](O)[C@@H]1C [Compound 109] | 0.03 (≈ 0.0339 µM) | >8 | 0.002 (≈ 0.00226 µM) | 1 (≈ 1.13 µM) | 0.25 (≈ 0.282 µM) | –
13 | CCOC(=O)C1CCN(c2cc(O)c3nc4c5c6c7c(C)c(O)c5c(=O)c(c-4oc3c2)NC(=O)/C(C)=C\C=C\[C@H](C)[C@H](O)[C@@H](C)[C@@H](O)[C@@H](C)[C@H](O)[C@H](C)[C@@H](OC)/C=C/O[C@@](C)(O7)C6=O)CC1 [Compound 110] | 0.004 (≈ 0.00438 µM) | >8 | 0.008 (≈ 0.00875 µM) | 0.5 (≈ 0.547 µM) | 0.12 (≈ 0.131 µM) | –
14 | COC1C=COC2(C)Oc3c(C)c(O)c4c(=O)c(c5oc6cc(N7CCC(F)CC7)ccc6nc-5c4c3C2=O)NC(=O)C(C)=CC=CC(C)C(O)C(C)C(O)C(C)C(O)C1C (stereo not drawn) [Compound 111] | 0.03 (≈ 0.0355 µM) | 8 (≈ 9.48 µM) | 0.008 (≈ 0.00948 µM) | 0.5 (≈ 0.592 µM) | 0.12 (≈ 0.142 µM) | –
15 | COC1C=COC2(C)Oc3c(C)c(O)c4c(=O)c(c5oc6cc(N7CCC(F)(F)CC7)ccc6nc-5c4c3C2=O)NC(=O)C(C)=CC=CC(C)C(O)C(C)C(O)C(C)C(O)C1C (stereo not drawn) [Compound 112] | 0.03 (≈ 0.0348 µM) | >8 | 0.015 (≈ 0.0174 µM) | 1 (≈ 1.16 µM) | 0.25 (≈ 0.29 µM) | –
16 | COC1C=COC2(C)Oc3c(C)c(O)c4c(=O)c(c5oc6cc(N7CC(C)OC(C)C7)cc(O)c6nc-5c4c3C2=O)NC(=O)C(C)=CC=CC(C)C(O)C(C)C(O)C(C)C(O)C1C (stereo not drawn) [Compound 114] | 0.015 (≈ 0.0172 µM) | 8 (≈ 9.17 µM) | 0.002 (≈ 0.00229 µM) | 0.25 (≈ 0.287 µM) | 0.25 (≈ 0.287 µM) | –
17 | COC1C=COC2(C)Oc3c(C)c(O)c4c(=O)c(c5oc6cc(N7CCCC7)c(C7CCCCC7)cc6nc-5c4c3C2=O)NC(=O)C(C)=CC=CC(C)C(O)C(C)C(O)C(C)C(O)C1C (stereo not drawn) [Compound 115] | 2 (≈ 2.24 µM) | >8 | 0.25 (≈ 0.28 µM) | >8 | 8 (≈ 8.95 µM) | –
18 | COC1C=COC2(C)Oc3c(C)c(O)c4c(=O)c(c5oc6cc(N7CCCC7)c(C)c(C)c6nc-5c4c3C2=O)NC(=O)C(C)=CC=CC(C)C(O)C(C)C(O)C(C)C(O)C1C (stereo not drawn) [Compound 117] | 0.5 (≈ 0.595 µM) | >8 | 0.06 (≈ 0.0714 µM) | 4 (≈ 4.76 µM) | 1 (≈ 1.19 µM) | –
19 | COc1c(N2CCCC2)cc(C)c2nc3c4c5c6c(C)c(O)c4c(=O)c(c-3oc12)NC(=O)C(C)=CC=CC(C)C(O)C(C)C(O)C(C)C(O)C(C)C(OC)C=COC(C)(O6)C5=O (stereo not drawn) [Compound 118] | 0.06 (≈ 0.0701 µM) | 8 (≈ 9.35 µM) | 0.03 (≈ 0.035 µM) | 2 (≈ 2.34 µM) | 0.12 (≈ 0.14 µM) | –
20 | COC1C=COC2(C)Oc3c(C)c(O)c4c(=O)c(c5oc6cc(N7CCC(F)C7)ccc6nc-5c4c3C2=O)NC(=O)C(C)=CC=CC(C)C(O)C(C)C(O)C(C)C(O)C1C (stereo not drawn) [Compound 119] | 0.03 (≈ 0.0361 µM) | 4 (≈ 4.82 µM) | 0.015 (≈ 0.0181 µM) | 0.5 (≈ 0.602 µM) | 0.06 (≈ 0.0723 µM) | –
21 | COC1C=COC2(C)Oc3c(C)c(O)c4c(=O)c(c5oc6cc(N7CCCC7)c(F)cc6nc-5c4c3C2=O)NC(=O)C(C)=CC=CC(C)C(O)C(C)C(O)C(C)C(O)C1C (stereo not drawn) [Compound 120] | 0.03 (≈ 0.0361 µM) | 8 (≈ 9.64 µM) | 0.06 (≈ 0.0723 µM) | 1 (≈ 1.2 µM) | 0.12 (≈ 0.145 µM) | –
22 | COC1C=COC2(C)Oc3c(C)c(O)c4c(=O)c(c5oc6cc(N7CCCN(C)CC7)cc(O)c6nc-5c4c3C2=O)NC(=O)C(C)=CC=CC(C)C(O)C(C)C(O)C(C)C(O)C1C (stereo not drawn) [Compound 121] | 0.004 (≈ 0.00459 µM) | 4 (≈ 4.59 µM) | 0.00012 (≈ 0.000138 µM) | 0.03 (≈ 0.0344 µM) | 0.25 (≈ 0.287 µM) | –
23 | COC1C=COC2(C)Oc3c(C)c(O)c4c(=O)c(c5sc6cc(N7CCCN(C)CC7)ccc6nc-5c4c3C2=O)NC(=O)C(C)=CC=CC(C)C(O)C(C)C(O)C(C)C(O)C1C (stereo not drawn) [Compound 122] | 0.002 (≈ 0.0023 µM) | 2 (≈ 2.3 µM) | 0.00025 (≈ 0.000287 µM) | 0.25 (≈ 0.287 µM) | 0.12 (≈ 0.138 µM) | –
24 | COC1C=COC2(C)Oc3c(C)c(O)c4c(=O)c(c5oc6cc(N(C)CC(C)C)cc(O)c6nc-5c4c3C2=O)NC(=O)C(C)=CC=CC(C)C(O)C(C)C(O)C(C)C(O)C1C (stereo not drawn) [Compound 125] | 0.015 (≈ 0.0178 µM) | >8 | 0.002 (≈ 0.00237 µM) | 0.5 (≈ 0.592 µM) | 0.5 (≈ 0.592 µM) | –
